# Test results published in patent US20250257051A1, “SUBSTITUTED PYRIMIDINE COMPOUNDS AS TYK2 INHIBITORS” (1910 Genetics Inc., priority 2022, published 2025).
# Counter-ions that a name gives are not always drawn.
# Target: human TYK2 (JH2domain-pseudokinase) (Homo sapiens (Human), UniProt P29597)
# Experiment: TYK2 JH2 Domain Binding Assay (KINOMEscan competition binding)
# Conditions: KINOMEscan; 11-point 3-fold dilution, top concentration 30,000 nM; Kd measurements in duplicate; read-out: TYK JH2 (Kd)
# Description: Binding constants for compounds disclosed herein may be determined by the KINOMEscan® assay developed by DiscoveRx. KINOMEscan® is based on a competition binding assay that quantitatively measures the ability of a compound to compete with an immobilized, active-site directed ligand. The assay is performed by combining three components: DNA-tagged kinase; immobilized ligand; and a test compound. The ability of the test compound to compete with the immobilized ligand is measure via quantitative PCR of the DNA tag.
# Binding constants for compounds disclosed herein against the JH2 domain are determined by the following protocol for a KINOMEscan® assay (DiscoveRx). A fusion protein of a partial length construct of human TYK2 (JH2domain-pseudokinase) (amino acids G556 to D888 based on reference sequence NP 003322.3) and the DNA binding domain of NFkB is expressed in transiently transfected HEK293 cells. From these HEK 293 cells, extracts are prepared in M-PER extraction buffer (Pierce) in the presence of Protease Inhibitor Cocktail Complete (Roche) and Phosphatase Inhibitor Cocktail Set II (Merck) per manufacturers' instructions. The TYK2 (JH2domain-pseudokinase) fusion protein is labeled with a chimeric double-stranded DNA tag containing the NFkB binding site (5′-GGGAATTCCC-3′) fused to an amplicon for qPCR readout, which is added directly to the expression extract (the final concentration of DNA-tag in the binding reaction is 0.1 nM).
# Streptavidin-coated magnetic beads (Dynal M280) are treated with a biotinylated small molecule ligand for 30 minutes at room temperature to generate affinity resins for the binding assays. The liganded beads are blocked with excess biotin and washed with blocking buffer (SeaBlock (Pierce), 1% BSA, 0.05% Tween 20, 1 mM DTT) to remove unbound ligand and to reduce nonspecific binding.
# Extracts are used directly in binding assays without any enzyme purification steps at a >10,000-fold overall stock dilution (final DNA tagged enzyme concentration<0.1 nM). Extracts are loaded with DNA-tag and diluted into the binding reaction in a two-step process. First extracts are diluted 1:100 in 1× binding buffer (PBS/0.05% Tween 20/10 mM DTT/0.1% BSA/[…] sonicated salmon sperm DNA) containing 10 nM DNA-tag. This dilution is allowed to equilibrate at room temperature for 15 minutes and then subsequently diluted 1:100 in 1× binding buffer. Test compounds are prepared as 111× stocks in 100% DMSO. Kds are determined using an 11-point 3-fold compound dilution series with three DMSO control points. All compounds for Kd measurements are distributed by acoustic transfer (non-contact dispensing) in 100% DMSO. The compounds are then diluted directly into the assays such that the final concentration of DMSO is 0.9%. All reactions performed in polypropylene 384-well plates. Each is a final volume of 0.02 mL. Assays are incubated with shaking for 1 hour at room temperature. Then the beads are pelleted and washed with wash buffer (lx PBS, 0.05% Tween 20) to remove displaced kinase and test compound. The washed beads are re-suspended in elution buffer (lx PBS, 0.05% Tween 20, 0.5 μM non-biotinylated affinity ligand) and incubated at room temperature with shaking for 30 minutes. The kinase concentration in the eluates is measured by qPCR. qPCR reactions are assembled by adding 2.5 μL of kinase eluate to 7.5 μL of qPCR master mix containing 0.15 μM amplicon primers and 0.15 μM amplicon probe. The qPCR protocol consists of a 10-minute hot start at 95° C., followed by 35 cycles of 95° C. for 15 seconds, 60° C. for 1 minute.
# Test compounds are prepared as 111× stocks in 100% DMSO. Kds are determined using an 11-point 3-fold compound dilution series with three DMSO control points. All compounds for Kd measurements are distributed by acoustic transfer (non-contact dispensing) in 100% DMSO. The compounds are then diluted directly into the assays such that the final concentration of DMSO is 0.9%. […]
# Sequence of human TYK2 (JH2domain-pseudokinase) (P29597 556-888): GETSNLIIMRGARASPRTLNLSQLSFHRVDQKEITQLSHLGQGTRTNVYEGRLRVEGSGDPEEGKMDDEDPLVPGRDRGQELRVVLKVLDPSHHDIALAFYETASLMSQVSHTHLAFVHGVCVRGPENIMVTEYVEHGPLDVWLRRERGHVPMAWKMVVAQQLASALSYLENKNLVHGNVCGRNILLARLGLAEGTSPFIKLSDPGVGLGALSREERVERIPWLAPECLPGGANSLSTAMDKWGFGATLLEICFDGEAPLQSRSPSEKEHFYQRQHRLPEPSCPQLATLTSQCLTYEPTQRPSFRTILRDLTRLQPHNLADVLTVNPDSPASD
row,Compound,Kd
1,"CNC(=O)c1cnc(N2CCN(C(=O)OC(C)(C)C)CC2C)nc1Nc1cccc(-c2ncc(F)cn2)c1OC (centres unmarked) [Compound 26, Tert-Butyl 4-(4-((3-(5-fluoropyrimidin-2-yl)-2-methoxyphenyl)amino)-5-(methylcarbamoyl)pyrimidin-2-yl)-3-methylpiperazine-1-carboxylate]",190 nM
2,"CNC(=O)c1cnc(N2CCC(C(=O)O)CC2)nc1Nc1cccc(-c2ncc(F)cn2)c1OC [Compound 27, 1-(4-((3-(5-fluoropyrimidin-2-yl)-2-methoxyphenyl)amino)-5-(methylcarbamoyl)pyrimidin-2-yl)piperidine-4-carboxylic acid]",36 nM
3,"CCOC(=O)C1CCN(c2ncc(C(=O)NC)c(Nc3cccc(-c4ncc(F)cn4)c3OC)n2)CC1 [Compound 28, Ethyl 1-(4-((3-(5-fluoropyrimidin-2-yl)-2-methoxyphenyl)amino)-5-(methylcarbamoyl)pyrimidin-2-yl)piperidine-4-carboxylate]",2.3 nM
4,"CNC(=O)c1cnc(N2CCCNCC2)nc1Nc1ccccc1OC [Compound 29, 2-(1,4-diazepan-1-yl)-4-((2-methoxyphenyl)amino)-N-methylpyrimidine-5-carboxamide]",4600 nM
5,"CNC(=O)c1cnc(N2CCCN(C(=O)OC(C)(C)C)CC2)nc1Nc1ccccc1OC [Compound 30, Tert-Butyl 4-(4-((2-methoxyphenyl)amino)-5-(methylcarbamoyl)pyrimidin-2-yl)-1,4-diazepane-1-carboxylate]",44000 nM
6,"CNC(=O)c1cnc(N2CCNCC2C)nc1Nc1ccccc1OC (centres unmarked) [Compound 31, 4-((2-methoxyphenyl)amino)-N-methyl-2-(2-methylpiperazin-1-yl)pyrimidine-5-carboxamide Hydrochloride]",4800 nM
7,"CNC(=O)c1cnc(N2CCN(C(=O)OC(C)(C)C)CC2C)nc1Nc1ccccc1OC (centres unmarked) [Compound 32, Tert-Butyl 4-(4-((2-methoxyphenyl)amino)-5-(methylcarbamoyl)pyrimidin-2-yl)-3-methylpiperazine-1-carboxylate]",17000 nM
8,"CNC(=O)c1cnc(N2CCC(C(=O)O)CC2)nc1Nc1ccccc1OC [Compound 33, 1-(4-((2-methoxyphenyl)amino)-5-(methylcarbamoyl)pyrimidin-2-yl)piperidine-4-carboxylic Acid]",710 nM
9,"CCOC(=O)C1CCN(c2ncc(C(=O)NC)c(Nc3ccccc3OC)n2)CC1 [Compound 34, Ethyl 1-(4-((2-methoxyphenyl)amino)-5-(methylcarbamoyl)pyrimidin-2-yl)piperidine-4-carboxylate]",760 nM
10,"NC(=O)c1cnc(N2CCC(C(=O)O)CC2)nc1Nc1ccc(C2CC2)nc1 [Compound 35, 1-(5-carbamoyl-4-((6-cyclopropylpyridin-3-yl)amino)pyrimidin-2-yl)piperidine-4-carboxylic acid]",710 nM
11,"CCOC(=O)C1CCN(c2ncc(C(N)=O)c(Nc3ccc(C4CC4)nc3)n2)CC1 [Compound 36, Ethyl 1-(5-carbamoyl-4-((6-cyclopropylpyridin-3-yl)amino)pyrimidin-2-yl)piperidine-4-carboxylate]",660 nM
12,"COc1c(Nc2nc(N3CCN(C(=O)OC(C)(C)C)CC3C)ncc2C(N)=O)cccc1-c1ncc(F)cn1 (centres unmarked) [Compound 37, Tert-Butyl 4-(5-carbamoyl-4-((3-(5-fluoropyrimidin-2-yl)-2-methoxyphenyl)amino)pyrimidin-2-yl)-3-methylpiperazine-1-carboxylate]",34 nM
13,"COc1c(Nc2nc(N3CCC(C(=O)O)CC3)ncc2C(N)=O)cccc1-c1ncc(F)cn1 [Compound 38, 1-(5-carbamoyl-4-((3-(5-fluoropyrimidin-2-yl)-2-methoxyphenyl)amino)pyrimidin-2-yl)piperidine-4-carboxylic Acid]",7.8 nM
14,"CCOC(=O)C1CCN(c2ncc(C(N)=O)c(Nc3cccc(-c4ncc(F)cn4)c3OC)n2)CC1 [Compound 39, Ethyl 1-(5-carbamoyl-4-((3-(5-fluoropyrimidin-2-yl)-2-methoxyphenyl)amino)pyrimidin-2-yl)piperidine-4-carboxylate]",0.82 nM
